Results as given in US20160122320A1, “USEFUL COMBINATIONS OF MONOBACTAM ANTIBIOTICS WITH BETA-LACTAMASE INHIBITORS” (Basilea Pharmaceutica AG, priority 2005, published 2016).
Where a name gives a salt, the structure may show the parent alone. Blank lines part the entries; values can stand above or below the compound they belong to.

Tests used:
Test in all cases: MIC, NCCLS broth microdilution
Format in all cases: cell-based
Acinetobacter sp. J2 = conditions: for MIC of antibiotic at fixed inhibitor concentration (4 mg/L): Acinetobacter sp. J2, MIC of antibiotic compound 1 with the labelled bridged monobactam of formula II and clavulanate, 4 mg/L each
[1] = tested on: Pseudomonas aeruginosa MK1184; conditions: for MIC of antibiotic at fixed inhibitor concentration (4 mg/L): MIC of antibiotic compound 1 with the labelled bridged monobactam of formula II and clavulanate, 4 mg/L each
[2] = tested on: Pseudomonas aeruginosa 1973E; conditions: for MIC of antibiotic at fixed inhibitor concentration (4 mg/L): MIC of antibiotic compound 1 with the labelled bridged monobactam of formula II and clavulanate, 4 mg/L each
Protocol: Antimicrobial activity of the compounds and of their combinations was determined against a selection of organisms according to the standard procedures described by the National Committee for Clinical Laboratory Standards (National Committee for Clinical Laboratory. Standards (2000). Methods for Dilution Antimicrobial Susceptibility Tests for Bacteria That Grow Aerobically-Fifth Edition: Approved Standard M7-A5. NCCLS, Wayne, Pa., USA).
In all cases the final concentration of DMSO incubated with the bacteria is less than or equal to 1%. […] Plates were incubated overnight at an appropriate temperature (30° C. or 37° C.) and optical densities assessed by eye. The MIC value is defined as the lowest compound concentration completely inhibiting visible growth of the test organism. When combinations between compounds of formula I with compounds of formula II and are evaluated the compounds of formula I are tested in dilution series as described above while the compounds of formula II and III-XIII were present in all wells at a constant concentration of 4 μg/mL each.

Enterobacter cloacae P99 = conditions: for MIC of antibiotic at fixed inhibitor concentration (4 mg/L): MIC of antibiotic compound 1 with the labelled bridged monobactam of formula II and clavulanate, 4 mg/L each
[3] = tested on: Klebsiella pneumoniae CF104; conditions: for MIC of antibiotic at fixed inhibitor concentration (4 mg/L): MIC of antibiotic compound 1 with the labelled bridged monobactam of formula II and clavulanate, 4 mg/L each
Serratia marcescens S6 = conditions: for MIC of antibiotic at fixed inhibitor concentration (4 mg/L): MIC of antibiotic compound 1 with the labelled bridged monobactam of formula II and clavulanate, 4 mg/L each
[4] = tested on: Stenotrophomonas malthophilia 1AC736; conditions: for MIC of antibiotic at fixed inhibitor concentration (4 mg/L): Stenotrophomonas malthophilia 1AC736, MIC of antibiotic compound 1 with the labelled bridged monobactam of formula II and clavulanate, 4 mg/L each

MIC of antibiotic at fixed inhibitor concentration (4 mg/L) (Acinetobacter sp. J2): 8 µg/mL | MIC of antibiotic at fixed inhibitor concentration (4 mg/L) [1]: >32 µg/mL | MIC of antibiotic at fixed inhibitor concentration (4 mg/L) [2]: 2 µg/mL | MIC of antibiotic at fixed inhibitor concentration (4 mg/L) (Enterobacter cloacae P99): 32 µg/mL | MIC of antibiotic at fixed inhibitor concentration (4 mg/L) [3]: 4 µg/mL | MIC of antibiotic at fixed inhibitor concentration (4 mg/L) (Serratia marcescens S6): 0.5 µg/mL | MIC of antibiotic at fixed inhibitor concentration (4 mg/L) [4]: 0.125 µg/mL
SMILES: NC(C(=O)N1CC[C@@H]2[C@H]1C(=O)N2S(=O)(=O)O)c1ccc(O)c(O)c1 (stereo partly drawn) [Compound 403]

MIC of antibiotic at fixed inhibitor concentration (4 mg/L) (Acinetobacter sp. J2): >32 µg/mL | MIC of antibiotic at fixed inhibitor concentration (4 mg/L) [1]: >32 µg/mL | MIC of antibiotic at fixed inhibitor concentration (4 mg/L) [2]: 8 µg/mL | MIC of antibiotic at fixed inhibitor concentration (4 mg/L) (Enterobacter cloacae P99): 32 µg/mL | MIC of antibiotic at fixed inhibitor concentration (4 mg/L) [3]: 1 µg/mL | MIC of antibiotic at fixed inhibitor concentration (4 mg/L) (Serratia marcescens S6): 0.5 µg/mL | MIC of antibiotic at fixed inhibitor concentration (4 mg/L) [4]: 0.125 µg/mL
SMILES: C[N+]1(CC(=O)N2CC[C@@H]3[C@H]2C(=O)N3S(=O)(=O)[O-])CCN(C(=O)n2ccnc2)CC1 [Compound 407, (1S,5R)-2-{2-[4-(imidazolylcarbonyl)-1-methylpiperazinium]acetyl}-7-oxo-2,6-diazabicyclo[3.2.0]heptane-6-sulfonate, inner salt]

The next lines start with the compound.

SMILES: Nc1ccc(NC(=O)N2CC[C@@H]3[C@H]2C(=O)N3S(=O)(=O)[O-])cc1.[Na+] [Compound 327, Sodium(1S,5R)-2-[N-(4-aminophenyl)carbamoyl]-7-oxo-2,6-diazabicyclo[3.2.0]heptane-6-sulfonate]
MIC of antibiotic at fixed inhibitor concentration (4 mg/L) (Acinetobacter sp. J2): 2 µg/mL | MIC of antibiotic at fixed inhibitor concentration (4 mg/L) [1]: >32 µg/mL | MIC of antibiotic at fixed inhibitor concentration (4 mg/L) [2]: 2 µg/mL | MIC of antibiotic at fixed inhibitor concentration (4 mg/L) (Enterobacter cloacae P99): 32 µg/mL | MIC of antibiotic at fixed inhibitor concentration (4 mg/L) [3]: 2 µg/mL | MIC of antibiotic at fixed inhibitor concentration (4 mg/L) (Serratia marcescens S6): 0.25 µg/mL | MIC of antibiotic at fixed inhibitor concentration (4 mg/L) [4]: 0.125 µg/mL

SMILES: NC(=O)OCC1C(NC(=O)C(=NOCc2cc(=O)c(O)cn2O)c2nc(N)sc2Cl)C(=O)N1OS(=O)(=O)O (stereo not drawn) [Compound 47]
MIC of antibiotic (Acinetobacter sp. J2; Acinetobacter baumannii J2, antibiotic alone, no inhibitor): >32 µg/mL | MIC of antibiotic at fixed inhibitor concentration of 4 mg/L (Acinetobacter sp. J2; Acinetobacter baumannii J2, with 102 and clavulanate): >32 µg/mL | MIC of antibiotic at fixed inhibitor concentration of 4 mg/L (Acinetobacter sp. J2; Acinetobacter baumannii J2, with 324 and clavulanate): >32 µg/mL | MIC of antibiotic ([1]; antibiotic alone, no inhibitor): 4 µg/mL | MIC of antibiotic at fixed inhibitor concentration of 4 mg/L ([1]; with 102 and clavulanate): 2 µg/mL | MIC of antibiotic at fixed inhibitor concentration of 4 mg/L ([1]; with 324 and clavulanate): 4 µg/mL | MIC of antibiotic ([2]; antibiotic alone, no inhibitor): 8 µg/mL | MIC of antibiotic at fixed inhibitor concentration of 4 mg/L ([2]; with 102 and clavulanate): 4 µg/mL | MIC of antibiotic at fixed inhibitor concentration of 4 mg/L ([2]; with 324 and clavulanate): 8 µg/mL | MIC of antibiotic (Enterobacter cloacae P99; antibiotic alone, no inhibitor): >32 µg/mL | MIC of antibiotic at fixed inhibitor concentration of 4 mg/L (Enterobacter cloacae P99; with 102 and clavulanate): 16 µg/mL | MIC of antibiotic at fixed inhibitor concentration of 4 mg/L (Enterobacter cloacae P99; with 324 and clavulanate): 32 µg/mL | MIC of antibiotic ([3]; antibiotic alone, no inhibitor): >32 µg/mL | MIC of antibiotic at fixed inhibitor concentration of 4 mg/L ([3]; with 102 and clavulanate): 4 µg/mL | MIC of antibiotic at fixed inhibitor concentration of 4 mg/L ([3]; with 324 and clavulanate): 2 µg/mL | MIC of antibiotic (Serratia marcescens S6; antibiotic alone, no inhibitor): 2 µg/mL | MIC of antibiotic at fixed inhibitor concentration of 4 mg/L (Serratia marcescens S6; with 102 and clavulanate): 2 µg/mL | MIC of antibiotic at fixed inhibitor concentration of 4 mg/L (Serratia marcescens S6; with 324 and clavulanate): 2 µg/mL | MIC of antibiotic ([4]; Stenotrophomonas maltophilia 1AC736, antibiotic alone, no inhibitor): 1 µg/mL | MIC of antibiotic at fixed inhibitor concentration of 4 mg/L ([4]; Stenotrophomonas maltophilia 1AC736, with 102 and clavulanate): 1 µg/mL | MIC of antibiotic at fixed inhibitor concentration of 4 mg/L ([4]; Stenotrophomonas maltophilia 1AC736, with 324 and clavulanate): 1 µg/mL

SMILES: NC(=O)c1cc[n+](CC(=O)N2CC[C@@H]3[C@H]2C(=O)N3S(=O)(=O)[O-])cc1C(N)=O [Compound 110, (1S,5R)-2-[2-(3,4-dicarbamoylpyridinium)acetyl]-7-oxo-2,6-diazabicyclo[3.2.0]heptane-6-sulfonate, inner salt]
MIC of antibiotic at fixed inhibitor concentration (4 mg/L) (Acinetobacter sp. J2): 2 µg/mL | MIC of antibiotic at fixed inhibitor concentration (4 mg/L) [1]: 32 µg/mL | MIC of antibiotic at fixed inhibitor concentration (4 mg/L) [2]: 4 µg/mL | MIC of antibiotic at fixed inhibitor concentration (4 mg/L) (Enterobacter cloacae P99): >32 µg/mL | MIC of antibiotic at fixed inhibitor concentration (4 mg/L) [3]: 0.125 µg/mL | MIC of antibiotic at fixed inhibitor concentration (4 mg/L) (Serratia marcescens S6): 0.25 µg/mL | MIC of antibiotic at fixed inhibitor concentration (4 mg/L) [4]: 0.125 µg/mL

SMILES: NC(=O)c1cnccc1C(=O)NCC(=O)N1CC[C@@H]2[C@H]1C(=O)N2S(=O)(=O)O [Compound 402, (1S,5R)-2-{2-[(3-carbamoylpyridyl-4)carbonylamino]acetyl}-7-oxo-2,6-diazabicyclo[3.2.0]heptane-6-sulfonic acid]
MIC of antibiotic at fixed inhibitor concentration (4 mg/L) (Acinetobacter sp. J2): 8 µg/mL | MIC of antibiotic at fixed inhibitor concentration (4 mg/L) [1]: 32 µg/mL | MIC of antibiotic at fixed inhibitor concentration (4 mg/L) [2]: 4 µg/mL | MIC of antibiotic at fixed inhibitor concentration (4 mg/L) (Enterobacter cloacae P99): 32 µg/mL | MIC of antibiotic at fixed inhibitor concentration (4 mg/L) [3]: <0.06 µg/mL | MIC of antibiotic at fixed inhibitor concentration (4 mg/L) (Serratia marcescens S6): 0.25 µg/mL | MIC of antibiotic at fixed inhibitor concentration (4 mg/L) [4]: <0.06 µg/mL

SMILES: O=C(C[n+]1ccc2ccccc2c1)N1CC[C@@H]2[C@H]1C(=O)N2S(=O)(=O)[O-] [Compound 104, (1S,5R)-2-(2-(2-isoquinolinium)acetyl)-7-oxo-2,6-diazabicyclo[3.2.0]heptane-6-sulfonate, inner salt]
MIC of antibiotic at fixed inhibitor concentration (4 mg/L) (Acinetobacter sp. J2): >32 µg/mL | MIC of antibiotic at fixed inhibitor concentration (4 mg/L) [1]: 32 µg/mL | MIC of antibiotic at fixed inhibitor concentration (4 mg/L) [2]: 4 µg/mL | MIC of antibiotic at fixed inhibitor concentration (4 mg/L) (Enterobacter cloacae P99): 32 µg/mL | MIC of antibiotic at fixed inhibitor concentration (4 mg/L) [3]: 0.5 µg/mL | MIC of antibiotic at fixed inhibitor concentration (4 mg/L) (Serratia marcescens S6): 2 µg/mL | MIC of antibiotic at fixed inhibitor concentration (4 mg/L) [4]: 0.125 µg/mL
